Measurements: paper PMC12428554, “Anti-HIV and Antimicrobial Activity of 7-Hydrazino-8-hydroxyquinoline-Based Aromatic Hydrazones” (International Journal of Molecular Sciences, 2025)
Converted amounts (≈) assume the structure as drawn. “And” between values parts separate entries of the source, which are not always exact repeats. Identical values can stand only once.

Legend:
[1] = biological target: T1, recombinant HIV-1 Integrase (strand transfer) (Human immunodeficiency virus type 1 group M subtype B, UniProt P04585); test: HIV integrase strand transfer inhibition; format: biochemical; settings: for IC50: 100 nM integrase, 37 °C, 2 h
T1 construct: The recombinant HIV-1 Integrase (In) was isolated from the Rosetta Escherichia coli producer strain; made in house; host or cells: Escherichia coli Rosetta
Method: The recombinant HIV-1 Integrase (In) was isolated from the Rosetta Escherichia coli producer strain and purified without the addition of a detergent as described previously. Radioactive ^32P label was introduced at the 5′-end of the oligonucleotide. Testing of the compounds was performed according to the previously published procedure. Briefly: 5 nM ^32P-labeled 21 mer DNA duplex (5′-[…]-3′ and 5′-[…]-3′) for 3′-processing reaction or 10 nM 19/21 mer DNA duplex (5′-[…]-3′ and 5′-[…]-3′) for strand transfer was incubated in 20 µL of the buffer (20 mM HEPES, pH 7.2, 7.5 mM MgCl2, 1 mM DTT) in the presence of 100 nM integrase and increasing concentrations of the inhibitor at 37 °C for 2 h. The reaction products were assayed by 20% polyacrylamide gel electrophoresis (PAGE) with 7 M urea. The result was visualized by radioautography on a Typhoon FLA 9500 PhosphorImager (GE Healthcare Technologies, Chicago, IL, USA). The counting of radioautograms was performed using QuantityOne 4.6.6 software (Bio-Rad, Hercules, CA, USA). Calculation of IC50 parameters was carried out by Prism 8.0.1 software (GraphPad Software, San-Diego, CA, USA).

[2] = system: HIV-1 (subtype B) in MT-4 cells; test: Antigen p24 assay in HIV-infected MT-4 cells; format: cell-based; settings: Human immunodeficiency virus 1, MT4; HIV-1 899A strain (subtype B), third day after infection
Method: The human MT-4 lymphoblastoid cells were cultured in RPMI 1640 medium supplemented with 10% fetal bovine serum (FBS) (HyClone, Logan, UT, USA), 2 mM L-glutamine, 50 U/mL penicillin, and 50 μg/mL streptomycin in a humidified atmosphere of 5% CO2 at 37 °C. The cells were re-seeded at a density of 3.0 × 10^5 cells/mL every three days. The HIV-1_899A strain (subtype B) was used from the collection of human immunodeficiency virus strains of the D.I. Ivanovsky Institute of Virology, N. F. Gamaleya National Research Center of Epidemiology and Microbiology, Ministry of Health, Moscow, Russia. The commercial drug Efavirenz (EFV), a non-nucleoside inhibitor of HIV reverse transcriptase, was used as a positive control. HIV-1 was added to the cells at 0.1 CCID50 (50% cell culture infectious dose). The cells, both infected and non-infected, were then incubated at 37 °C in a humidified atmosphere containing 5% CO2 for a 40 min period, after which the cells were washed twice in serum-free RPMI 1640 and plated into the wells of a 96-well plate. The tested compounds were then added to the cells at concentrations from 0.5 μM to 100 μM. The final ethanol concentration was 1% v/v. On the third day after infection, the culture fluid was collected for determining the amount of p24 antigen by enzyme immunoassay analysis using a commercial test system kit (Genscreen ULTRA HIV Ag-Ab, Bio-Rad, Hercules, CA, USA). Cell viability was measured by MTT assay.

P. aeruginosa ATCC 27853 = test: MIC by twofold serial dilution, P. aeruginosa; format: cell-based; settings: Pseudomonas aeruginosa, ATCC27853; 24 h, 37 °C; read-out: MIC (Mean ± SE) P. aeruginosa ATCC 27853
Method: (§1) Candida albicans ATCC 10231, Pseudomonas aeruginosa ATCC 27853, and Staphylococcus aureus ATCC 29213 strains were obtained from the American Type Culture Collection (ATCC; Rockville, MD, USA). The subculture and inoculum preparation were performed according to CLSI M27-A3 for C. albicans on yeast extract peptone dextrose (YPD) agar (HiMedia, Mumbai, Maharashtra, India) and RPMI-1640 medium (PanEco, Moscow, Russia) with MOPS (3-(N-morpholino) propanesulfonic acid, >99.5%; PanEco, Moscow, Russia), and M7-A11 for P. aeruginosa and S. aureus on Mueller-Hinton agar (MHA; HiMedia, Mumbai, Maharashtra, India) and Mueller-Hinton broth (MHB; HiMedia, Mumbai, Maharashtra, India). The stock cell concentrations of fungus and bacteria were 1 × 10^6 and 1 × 10^8 cells/mL, respectively. A working suspension of C. albicans (5.0 × 10^2 cells/mL) was prepared by two-step dilution of the broth concentration with the RPMI-1640 medium. Assay suspensions of P. aeruginosa and S. aureus (1.0 × 10^6 cells/mL) were prepared by diluting the concentration with Mueller-Hinton broth (HiMedia, Mumbai, Maharashtra, India). Amphotericin B (Sigma-Aldrich, Burlington, MA, USA) and gentamicin (Sigma-Aldrich, Burlington, MA, USA) were used as secondary pharmaceutical standards.
(§2) The minimum inhibitory concentration (MIC) was determined by the twofold serial dilution method, according to CLSI M27-A3 [33] and M07-A11 [34], in three independent experiments with four replicates each. Amphotericin B was used as a positive control for fungus; gentamicin was used as a positive control for bacteria. Stock solutions except gentamicin were prepared in DMSO at a concentration of 6400 μg/mL. Gentanicin was solubilized in sterile water at a concentration of 1280 μg/mL. Stock solutions of the tested substances were diluted to the final concentrations in the assay medium and 100 μL of each sample was added to the wells of 96-well plates, and then 100 μL of inoculum was added. Rows 11 and 12 were left for the negative control (medium with inoculum without the drug) and sterility control. The plates were incubated for 24 h at 35 °C in the case of C. albicans and at 37 °C in the case of P. aeruginosa and S. aureus. The tested concentration for gentamicin ranged from 0.0625 to 32 μg/mL; for other compounds, it ranged from 0.125 to 64 μg/mL. The MIC value was determined using spectrophotometer. The MIC was taken to be the lowest drug concentration that caused complete inhibition of microorganism growth compared to the control. The final MIC values were reported as the means with standard error (SE). Standard errors for µg/mL values less than 0.01 were excluded; standard errors for µM values less than 0.1 were excluded (Table 3).

S. aureus ATCC 29213 = test: MIC by twofold serial dilution, S. aureus; format: cell-based; settings: Staphylococcus aureus, ATCC29213, 24 h, 37 °C, read-out: MIC (Mean ± SE) S. aureus ATCC 29213
Method: as §1, §2

Row | SMILES | IC50 [1] | IC50 [2] [µM] | MIC (P. aeruginosa ATCC 27853) | MIC (S. aureus ATCC 29213) | inhibition of strand transfer, in words [1]
1 | Oc1c(N/N=C/c2ccc(F)cc2)ccc2cccnc12 [VI, 7-(4-Fluorobenzylidenohydrazinyl)-8-hydroxyquinoline] | ~40 µM and 40 µM | < 0.5 | > 64 µg/mL and > 228 µM | ≥ 64 µg/mL and ≥ 228 µM | –
2 | O=[N+]([O-])c1ccc(/C=N/Nc2ccc3cccnc3c2O)cc1 [II, 7-(4-Nitrobenzylidenohydrazinyl)-8-hydroxyquinoline] | > 200 µM | 1.2 ± 0.08 | > 64 µg/mL and > 208 µM | 14 ± 1.9 µg/mL (≈ 45.4 µM) | ineffective
3 | O=[N+]([O-])c1cccc(/C=N/Nc2ccc3cccnc3c2O)c1 [III, 7-(3-Nitrobenzylidenohydrazinyl)-8-hydroxyquinoline] | 190 ± 60 µM | 1.4 ± 0.33 | > 64 µg/mL and > 208 µM | 18 ± 4.8 µg/mL (≈ 58.4 µM) | weak activity
4 | Oc1c(N/N=C/c2ccc(Br)c(Br)c2)ccc2cccnc12 [V, 7-(3,4-Dibromobenzylidenohydrazinyl)-8-hydroxyquinoline] | > 200 µM | < 0.5 | > 64 µg/mL and > 152 µM | 36.3 ± 10.3 µg/mL (≈ 86.2 µM) | ineffective
5 | COc1ccc(/C=N/Nc2ccc3cccnc3c2O)cc1 [IV, 7-(4-Methoxybenzylidenohydrazinyl)-8-hydroxyquinoline] | 150 ± 50 µM | 0.67 ± 0.05 | > 64 µg/mL and > 218 µM | 64 µg/mL and 218 µM | weak activity
6 | Oc1c(N/N=C/c2ccccc2)ccc2cccnc12 [Compound I, 7-(2-Benzylidenohydrazinyl)-8-hydroxyquinoline] | 160 ± 50 µM | 0.77 ± 0.03 | > 64 µg/mL and > 243 µM | 52 µg/mL and 198 µM | weak activity
